Source: patent publication US20120208873A1, “TEA POLYPHENOLS PRODUCTS FOR CEASING SMOKING AND TREATING AND/OR PREVENTING NICOTINE OR NICOTINE-DERIVED COMPOUNDS OR ESTROGEN INDUCED BREAST CANCER” (priority 2011, published 2012)
Entries after “also recorded” stand apart in the source; their conditions may differ.

What was measured:
Format in all cases: cell-based, human
[1] = tested on: p53; assay: ChIP assay of p53 binding to the α9-nAChR promoter in MCF-7 cells; settings: EGCG 10 μM pretreatment, Nic 10 μM
[2] = tested on: p-AKT (Ser^473); assay: phosphorylated AKT by immunoblotting in MCF-7 cells; settings: EGCG 10 μM 24 h pretreatment, then Nic 10 μM or E2 10 nM 24 h
Procedure: (§1) To prepare protein samples, cells were washed once with ice-cold PBS and lysed on ice in cell lysis buffer (50 mM Tris-HCl, pH 8.0, 120 mM […], 0.5% Nonidet P-40, 100 mM sodium fluoride, and 200 μM sodium orthovanadate) containing protease inhibitors as described previously (Shih, Y. L., Liu, H. C., Chen, C. S., Hsu, C. H. et al., J. Agric. Food Chem. 2010, 58, 235-241). Protein (50 μg) from each sample was resolved by 12% SDS-polyacrylamide gel electrophoresis, transferred, and analyzed by Western blotting. Antibodies were purchased from the following vendors: anti-total AKT and protein A/G agarose beads were obtained from Santa Cruz Biotechnology (Santa Cruz, Calif., USA); anti-GAPDH and anti-α9-nAChR antibodies were from Abcam (Cambridge, UK); antiphospho AKT (Ser^473), anti-c-Jun, and anti-c-Fos were from Cell Signaling Technology (Beverly, Mass., USA). The secondary antibodies, alkaline phosphatase-coupled anti-mouse, and anti-rabbit IgG were purchased from Santa Cruz Biotechnology. The specific protein complexes were identified with the chromogenic substrates nitro blue tetrazolium, and 5-bromo-4-chloro-3-indolyl-phosphate from KPL (Gaithersburg, Md., USA). In each experiment, proteins were also probed with anti-GAPDH antibodies as a protein-loading control.

[3] = tested on: α9-nAChR promoter; assay: α9-nAChR promoter luciferase activity assay in MCF-7 cells; settings: EGCG 10 μM 24 h pretreatment, then Nic or E2 24 h
Procedure: All α9-nAChR promoter—luciferase gene fusions were made in the pGL3-Basic vector (Promega, Madison, Wis., USA) by introducing the appropriate α9-nAChR promoter fragments into the polylinker upstream of the luciferase gene. These fragments were generated with restriction enzymes and cloned directly into pGL3-Basic or subcloned first in pBluescript and then transferred to pGL3-Basic. Deletion analysis of the most promoter-proximal region was performed by generating either appropriate restriction enzyme fragments or PCR fragments with suitable sense oligonucleotides and an antisense primer (5′-[…]-3′ (SEQ ID NO:1)) that anneals to the pGL3-Basic vector downstream of the site of transcription initiation.
MCF-7 cells were plated in 6-well plates. Cells were transiently cotransfected the next day with 1.5 μg of PGL3-Basic plasmid containing the full-length α9-nAChR promoter and 0.1 μg of the RLTK plasmid (Promega) using an MP-100 microporator (Digital Bio), according to the manufacturer's instructions. After incubation for 24 h, the medium was changed to culture medium containing 10% FBS or 0.1% FB S with or without Nic. Cells were lysed 24 h later with 1× Reporter Lysis Buffer (Promega) and stored frozen at −20° C. overnight. Luciferase activity was determined by testing 50 μL of the cell lysate and 50 μL of the Luciferase Assay Reagent (Promega) using a HIDEX Chameleon Microplate Reader. Relative luciferase units were normalized to renilla luciferase from the same cell lysates. Each luciferase assay experiment was performed three times.

[4] = tested on: α9-nAChR protein; assay: α9-nAChR protein levels by immunoblotting in MCF-7 cells; settings: MCF-7
Procedure: (§2) Human mammary gland epithelial adenocarcinomas (MCF7, MDA-MB-231, AU-565, MDA-MB-453, and BT-483) and normal human mammary gland epithelial fibrocystic cell lines (MCF-10A and HBL-100) were purchased from ATCC (American Type Culture Collection, Manassas, Va., USA). MCF-7, MDA-MB-231, and MDA-MB-453 cells were maintained in DMEM, whereas BT-483 cells were maintained in RPMI-1640. Cell growth, proliferation, and viability were determined by the 3-(4,5-dimethylthiazol-2-yl)-2,5-diphenyltetrazolium (MTT) assay. The formazan product was measured by absorbance at 540 nm.
as §1

[5] = tested on: MCF-10A cells; assay: Cell proliferation (MTT assay) in normal MCF-10A cells; settings: Nic 10 μM or EGCG 10-25 μM
Procedure: as §2

O=C(O[C@@H]1Cc2c(O)cc(O)cc2O[C@@H]1c1cc(O)c(O)c(O)c1)c1cc(O)c(O)c(O)c1 [EGCG, (−)-epigallocatechin-3-gallate]
p53 binding to the α9-nAChR promoter (−125 to 0) [1]: not affected
pAKT protein expression induced by either E2 or Nic [2]: significantly inhibited
Nic- and E2-induced α9-nAChR promoter luciferase activity [3]: significantly reduces
Nic- and E2-induced upregulation of α9-nAChR protein after inhibitor pretreatment ([4]; 24 h pretreatment (LY294002 25 μM or EGCG 10 μM), then Nic 10 μM or E2 10 nM 24 h): almost completely inhibited; also recorded: significantly inhibited
α9-nAChR protein in Nic-treated cells ([4]; EGCG 1 μM with Nic 10 μM, 24 h): downregulated
α9-nAChR protein expression induced by either Nic or E2 ([4]; Nic 10 μM or E2 10 nM in presence of EGCG 1-10 μM, 24 h): significantly inhibited
cell number in normal breast epithelial cells [5]: no changes
